This is an account of results in PMC5207512, “Inhibition of Helicobacter pylori and Its Associated Urease by Palmatine: Investigation on the Potential Mechanism” (PLoS ONE, 2017).

The target of data set [1] is T1, H. pylori urease (HPU) (Helicobacter pylori, UniProt P69996).
T1 construct: HPU was prepared as previously described; made in house
The experiment in a line: biochemical. The note with it: Fig 4A HPU, Pal 0.5 mM, thiols 1.25 mM, replicates. How it is done:
(§1) For the protection with thiols-containing compounds, the mixture consisting of 0.25 mg/mL urease (HPU or JBU), 0.5 mM Pal (for both HPU and JBU) and 1.25 mM thiols (DTT, GSH and L-cys) was incubated for 5, 10, 20, and 40 min at 37°C, respectively. The control sample instead of the protectors contained a proper volume of respective buffer.

Data set [2] concerns the target T2, jack bean urease (JBU) (Canavalia ensiformis, UniProt P07374).
T2 construct: Urease from jack bean (Canavalia ensiformis, JBU); purchased Sigma-Aldrich (St Louis, MO, USA) type III (catalogue number not given)
Put plainly: biochemical. The conditions noted are these: Fig 4B JBU, Pal 0.5 mM, thiols 1.25 mM, replicates. How it is done: as §1

The target of data set [3] is T1, H. pylori urease (HPU). The experiment in a line: biochemical. The format is biochemical. The conditions noted are these: Fig 5A HPU, thiols 1.25 mM, Pal 0.5 mM, 20+20 min. How it is done: (§2) The reaction mixture consisted of 0.25 mg/mL HPU or JBU, 0.5 mM Pal (for both HPU and JBU), and 1.25 mM thiols (DTT, GSH, or L-cys) in 20 mM HEPES buffer (pH 7.5). The components of the incubation mixture were mixed according to three procedures: (1) Urease was added to the mixture after a 20-min co-incubation of Pal with thiol. (2) Pal was added to the mixture after a 20-min co-incubation of urease with thiol. (3) Thiols were added to the mixture after a 20-min co-incubation of urease with Pal. The incubation mixture containing all components was incubated for further 20 min and the activity of urease was determined. The experiments were triply performed.

Data set [4] concerns the target T2, jack bean urease (JBU). Put plainly: biochemical. The format is biochemical. The conditions noted are these: Fig 5B JBU, thiols 1.25 mM, Pal 0.5 mM, 20+20 min. How it is done:
as §2

Data set [5] deals with T1, H. pylori urease (HPU). Put plainly: biochemical. The note with it: for Urease activity: Fig 6A HPU. The format is biochemical. How it is done:
(§3) The reactivation of Pal-inactivated urease was investigated by DTT application. The preincubation mixture consisted of 0.25 mg/mL HPU or JBU and 0.5 mM Pal in 20 mM HEPES buffer (pH 7.5). Then the mixture was further incubated with 1.25 mM DTT after 20 min. The enzymatic activity of urease was determined before and after the addition of DTT. After a while, aliquots were withdrawn and the urease residual activity was determined. The experiments were repeated three times.

Data set [6] has as its target T2, jack bean urease (JBU). The experiment in a line: biochemical. The conditions noted are these: for Urease activity: Fig 6B JBU. Type of data set: biochemical. How it is done: as §3
The target of data set [7] is T1, H. pylori urease (HPU). The experiment in a line: biochemical. The format is biochemical. The note with it: Fig 4C HPU; BA or NaF 5 mM preincubated 20 min, Pal 0.5 mM 20 min. How it is done: (§4) For the protection with inorganic compounds (BA and NaF), 0.25 mg/mL urease (HPU or JBU) was preincubated with 5 mM BA or 5 mM NaF for 20 min. Following preincubation, each sample of the protected urease was incubated with 0.5 mM Pal for 20 min. The samples containing a proper volume of respective buffer instead of Pal served as comparison with the abovementioned systems. The experiments were triply performed.

For data set [8], the target named is T2, jack bean urease (JBU). Put plainly: biochemical. The conditions noted are these: Fig 4D JBU; BA or NaF 5 mM preincubated 20 min, Pal 0.5 mM 20 min. The format is biochemical. How it is done:
as §4

A further data set relates to H. pylori ATCC 43504. Put plainly: MIC by agar dilution method. Type of data set: cell-based. The conditions noted are these: Helicobacter pylori. How it is done:
(§5) A total of four H. pylori strains were studied, including three reference strains ATCC 43504, NCTC 26695 and SS1 gifted from Professor Richard Ferrero, Monash University, Australia, and one clinical isolate ICDC 111001 obtained from Professor Zhang Jianzhong, Chinese Center of Disease Control and Prevention. […] The MICs of Pal against the four H. pylori strains were evaluated by using agar dilution method. […] H. pylori strains were harvested and resuspended in PBS (1.0–2.0 McFarland were defined based on the strain properties). […] After 72 h, the MIC values were determined as the lowest concentration at which there was no strain growth judged by visual examination. Metronidazole was used as the positive control. The experiments were evaluated under two different pH (7.4 and 5.3) conditions and repeated twice.
For orientation: In agar dilution the substance is mixed into plates at graded concentrations.

Data set [9] relates to H. pylori ICDC 111001 (clinical isolate). Put plainly: MIC by agar dilution method. The conditions noted are these: Helicobacter pylori. The format is cell-based. How it is done:
as §5

Another data set deals with H. pylori NCTC 26695. The experiment in a line: MIC by agar dilution method. The format is cell-based. The note with it: Helicobacter pylori. How it is done:
as §5

The next data set concerns H. pylori SS1. The experiment in a line: MIC by agar dilution method. The format is cell-based. The conditions noted are these: Helicobacter pylori. How it is done:
as §5

A further data set concerns HPU. More on the design: method as in PMID 26669678. The conditions noted are these: cited from earlier work.
For the next data set, the system named is JBU. More on the design: method as in PMID 26669678. The note with it: cited from earlier work.
On the set-up of data set [10]: method as in PMID 23159469. The note with it: among berberine, coptisine, palmatine and epiberberine; in vitro and in vivo assays; cited from earlier work.
The mark [11] stands for this setting: 1.25 mM DTT, control of reactivation assay.
The mark [12] stands for this setting: incubation time 5 min, Pal 0.5 mM, DTT 1.25 mM.
[13] abbreviates: incubation time 10 min, Pal 0.5 mM, DTT 1.25 mM.
Where [14] appears, read: incubation time 15 min, Pal 0.5 mM, DTT 1.25 mM.
Where [15] appears, read: incubation time 20 min, Pal 0.5 mM, DTT 1.25 mM.
Setting [16] is: incubation time 120 min, DTT added post 20 min.

The term MIC denotes the lowest concentration found to suppress growth. High values mean weaker potency, low ones greater potency. Usually IC50 stands for the concentration that gives 50% inhibition.

Structures are written as SMILES. Values after ≈ are worked out from the molar mass of the structure shown. Values joined by “and” are separate entries in the source; they are usually repeats but may differ in a detail not shown here. Equal entries are not always repeated.

T2 sequence (P07374 whole entry, looked up): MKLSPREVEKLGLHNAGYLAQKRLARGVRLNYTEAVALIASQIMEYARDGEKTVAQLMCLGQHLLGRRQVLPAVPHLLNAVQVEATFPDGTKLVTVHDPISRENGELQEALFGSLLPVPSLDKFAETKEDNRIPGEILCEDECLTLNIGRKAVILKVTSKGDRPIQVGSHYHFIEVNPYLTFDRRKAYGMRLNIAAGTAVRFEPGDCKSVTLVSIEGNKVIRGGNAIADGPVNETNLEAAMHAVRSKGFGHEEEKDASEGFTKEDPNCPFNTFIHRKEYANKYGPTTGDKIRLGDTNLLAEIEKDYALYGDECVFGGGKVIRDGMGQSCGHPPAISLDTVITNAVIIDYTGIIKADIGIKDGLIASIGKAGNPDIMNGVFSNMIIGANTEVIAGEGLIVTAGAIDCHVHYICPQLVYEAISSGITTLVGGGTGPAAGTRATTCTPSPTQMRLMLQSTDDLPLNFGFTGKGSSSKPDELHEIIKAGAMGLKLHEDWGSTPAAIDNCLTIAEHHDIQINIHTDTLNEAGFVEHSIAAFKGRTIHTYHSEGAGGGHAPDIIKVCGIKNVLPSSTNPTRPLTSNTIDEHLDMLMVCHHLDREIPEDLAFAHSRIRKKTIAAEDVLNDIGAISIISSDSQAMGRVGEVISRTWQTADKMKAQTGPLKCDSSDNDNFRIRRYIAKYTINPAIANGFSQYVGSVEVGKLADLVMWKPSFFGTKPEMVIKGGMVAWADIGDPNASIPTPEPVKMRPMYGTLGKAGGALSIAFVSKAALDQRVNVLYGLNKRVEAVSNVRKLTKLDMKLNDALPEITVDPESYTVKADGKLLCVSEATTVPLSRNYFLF
T1 sequence (P14916 whole entry): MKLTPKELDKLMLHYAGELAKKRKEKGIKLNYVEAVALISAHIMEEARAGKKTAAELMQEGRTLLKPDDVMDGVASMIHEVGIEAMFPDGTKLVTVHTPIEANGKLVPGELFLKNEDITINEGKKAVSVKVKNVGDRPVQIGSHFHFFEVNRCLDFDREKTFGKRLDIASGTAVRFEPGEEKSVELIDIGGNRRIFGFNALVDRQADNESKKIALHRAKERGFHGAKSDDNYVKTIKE
T1 sequence (P69996 whole entry): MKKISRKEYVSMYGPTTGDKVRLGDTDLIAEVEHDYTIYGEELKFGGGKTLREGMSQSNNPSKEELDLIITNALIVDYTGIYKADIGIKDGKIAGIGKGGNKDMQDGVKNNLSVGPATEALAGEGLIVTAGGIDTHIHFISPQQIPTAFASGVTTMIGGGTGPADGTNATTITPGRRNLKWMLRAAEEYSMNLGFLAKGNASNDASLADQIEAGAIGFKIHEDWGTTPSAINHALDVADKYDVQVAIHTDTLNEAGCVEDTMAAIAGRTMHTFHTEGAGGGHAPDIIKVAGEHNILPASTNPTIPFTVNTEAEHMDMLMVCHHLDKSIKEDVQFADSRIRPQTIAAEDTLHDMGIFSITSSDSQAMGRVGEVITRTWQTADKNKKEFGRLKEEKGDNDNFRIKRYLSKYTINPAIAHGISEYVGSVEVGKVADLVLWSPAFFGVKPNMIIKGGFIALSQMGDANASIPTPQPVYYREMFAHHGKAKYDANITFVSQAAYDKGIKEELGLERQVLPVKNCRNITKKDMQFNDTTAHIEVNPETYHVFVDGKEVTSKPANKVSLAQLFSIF

With `O[C@@H](CS)[C@@H](O)CS` (racemic) [DTT, dithiothreithol], the “Residual urease activity (percent of control)” value is 81.4793% and 82.3893% and 84.6876% on H. pylori urease (HPU) [1] (5 min incubation); 90.4823% and 88.7843% and 92.6863% on H. pylori urease (HPU) [1] (10 min incubation); 93.6879% and 92.2701% and 94.7893% at H. pylori urease (HPU) [1] (20 min incubation); 98.9725% and 95.7934% and 96.4654% on H. pylori urease (HPU) [1] (40 min incubation); 93.6533% and 90.8565% and 95.5784% on jack bean urease (JBU) [2] (5 min incubation); 106.756% and 109.689% and 104.897% on jack bean urease (JBU) [2] (10 min incubation). The “Residual urease activity (percent of control)” value on jack bean urease (JBU) [2] (20 min incubation) is 115.579% and 114.01% and 114.79%; on jack bean urease (JBU) [2] (40 min incubation), 142.945% and 126.676% and 135.643%; on H. pylori urease (HPU) [3] (order (Protector+Pal)+urease) it was 93.1647% and 102.135% and 96.7756%; on H. pylori urease (HPU) [3] (order (urease+Pal)+Protector), 108.215% and 111.632% and 112.117%; at H. pylori urease (HPU) [3] (order (urease+Protector)+Pal), 93.9563% and 102.92% and 98.1268%; at jack bean urease (JBU) [4] (order (Protector+Pal)+urease), 164.505% and 163.42% and 167.948%. In addition, the “Residual urease activity (percent of control)” value on jack bean urease (JBU) [4] (order (urease+Pal)+Protector) is 156.562% and 141.035% and 115.717%; on jack bean urease (JBU) [4] (order (urease+Protector)+Pal), 175.198% and 170.348% and 183.958%. Besides, the “HPU activity with DTT without Pal” value on H. pylori urease (HPU) [5] (setting [11]) is recorded as “ca. 100%”. Also, the Urease activity on H. pylori urease (HPU) [5] (setting [12]) was 95.491% and 88.7241% and 81.9292%; on H. pylori urease (HPU) [5] (setting [13]), 99.0165% and 99.0712% and 98.1423%; at H. pylori urease (HPU) [5] (setting [14]), 99.1346% and 97.2572% and 95.4326%; on H. pylori urease (HPU) [5] (setting [15]) it was 97.9325% and 92.9515% and 87.6438%; at H. pylori urease (HPU) [5] (incubation time 40 min, DTT added post 20 min), 92.9813% and 91.5048% and 89.9013%; on H. pylori urease (HPU) [5] (incubation time 60 min) it was 98.0126% and 92.5129% and 87.7924%. Also, the Urease activity on H. pylori urease (HPU) [5] (incubation time 90 min) is 91.4647% and 89.1159% and 85.7645%; on H. pylori urease (HPU) [5] (setting [16]) it was 96.0166% and 88.9974% and 82.2782%; on jack bean urease (JBU) [6] (setting [12]), 121.742% and 114.981% and 108.343%; on jack bean urease (JBU) [6] (setting [13]), 110.236% and 112.928% and 115.246%; on jack bean urease (JBU) [6] (setting [14]) it was 113.236% and 116.183% and 119.514%; at jack bean urease (JBU) [6] (setting [15]) it was 121.141% and 121.265% and 120.209%. The Urease activity at jack bean urease (JBU) [6] (incubation time 25 min) is 120.019% and 120.291% and 121.459%; at jack bean urease (JBU) [6] (incubation time 40 min) it was 107.983% and 105.801% and 103.225%; at jack bean urease (JBU) [6] (incubation time 60 min), 111.088% and 107.798% and 104.326%; on jack bean urease (JBU) [6] (incubation time 90 min), 107.125% and 104.437% and 101.122%; at jack bean urease (JBU) [6] (setting [16]), 112.893% and 110.524% and 108.243%. Moreover, the “JBU activity with DTT without Pal” value at jack bean urease (JBU) [6] (setting [11]) is “ca. 100%”.
For the compound `OB(O)O` [BA, boric acid], the “Residual urease activity (percent of control)” value on H. pylori urease (HPU) [7] was 98.6% and 98.6098% and 99.1614% and 98.0689%; at jack bean urease (JBU) [8], 86.6% and 87.7694% and 84.1052% and 87.7801%.
In the case of `Cc1ncc([N+](=O)[O-])n1CCO` [Met, Metronidazole], the minimal inhibitory concentration (MIC) turned out to be 0.5 µg/mL (≈ 2.92 µM) in the data set on H. pylori ATCC 43504 (ATCC43504, pH 5.3, 72 h); 0.5 µg/mL (≈ 2.92 µM) against H. pylori ATCC 43504 (ATCC43504, pH 7.4, 72 h); 2 µg/mL (≈ 11.7 µM) in data set [9] (pH 5.3, 72 h); 2 µg/mL (≈ 11.7 µM) in [9] (pH 7.4, 72 h); 2 µg/mL (≈ 11.7 µM) against H. pylori NCTC 26695 (NCTC26695, pH 5.3, 72 h); 2 µg/mL (≈ 11.7 µM) against H. pylori NCTC 26695 (NCTC26695, pH 7.4, 72 h). Further, the MIC worked out at 0.5 µg/mL (≈ 2.92 µM) in the data set with H. pylori SS1 (pH 5.3, 72 h) and 0.5 µg/mL (≈ 2.92 µM) against H. pylori SS1 (pH 7.4, 72 h).
For `[F-].[Na+]` [NaF, sodium fluoride], the “Residual urease activity (percent of control)” value is 54.6% and 54.7779% and 54.0024% and 55.0707% on H. pylori urease (HPU) [7]; 42.9% and 43.7771% and 43.724% and 41.2392% at jack bean urease (JBU) [8].
`COc1ccc2cc3[n+](cc2c1OC)CCc1cc2c(cc1-3)OCO2` [berberine]: the concentration for half-maximal inhibition (IC50) in the data set with HPU is 10.2 ± 1.1 mM; in the data set on JBU, more than 13 mM. For the same compound, the toxicity entry in [10] is given as “relatively more toxic”.
